Measurements taken from patent US12310967B2, “Compositions and methods of treatment for neurological disorders comprising motor neuron diseases” (Gliapharm SA, priority 2017, dated 2025).

Columns and labels:
primary astrocytes [1] = assay: Extracellular lactate quantification; type: cell-based, mouse; conditions: for Score_LACTATE: Appendix I, secondary screening: extracellular lactate
Method: Secretion of L-lactate was determined in the extracellular medium of 96-well plated astrocytes after 90 min stimulation (at 37° C., in 5% CO2/95% air conditions) with the drug of interest. The stimulation medium was composed of D5030 medium (completed with D-glucose 5 mM and 44 mM sodium bicarbonate) for 90 min in concentrations ranging from 0 to 100 μM.
Briefly, 200 μl of a Glycine (Sigma)-Semicarbazide (Acros) 0.2M pH 10 buffer containing 3 mM NAD (Roche) and LDH 14 U/ml (Roche) was added to each well of a 96-well plate containing 30 μl aliquots complemented with 20 μl fresh complete D5030 medium. Samples were incubated at 37° C. for 1 h. After samples cooled down at room temperature, the fluorescence intensity (340 nm excitation/450 nm emission) that represents the amount of NADH produced was measured, and lactate concentration values were determined from a standard curve of L-lactate.
Statistical analysis consisted in ANOVA followed by Fisher LSD post-hoc test for pair-wise comparisons.
Levels of lactate secreted by astrocytes were measured in the extracellular medium at 90 min after stimulation with hits (molecules) from the CDC54K library.

primary astrocytes [2] = assay: High throughput screening (HTS) for lactate secretion: acidification of extracellular medium (SNARF5); type: cell-based, mouse; parameters: key to Score / HTS Score (SNARF5) / Score_SNARF: fraction of plate positive-control activity (1 = 100%); conditions: Appendix I, primary screening confirmation (SNARF5)
Method: Primary cultures of cerebrocortical astrocytes were obtained from 1-2-day-old OF1 mouse pups (Charles River Laboratories). Briefly, cortices were isolated and minced in small pieces under a dissecting microscope. The cells were incubated for 30 min at 37° C. in a solution containing 20 U/ml of papain enzyme (Worthington Biochemical), L-cysteine 1 mM (Sigma), and 10 kU/ml DNase I (Worthington Biochemical) for an enzymatic dissociation. Papain activity was stopped by the addition of fetal calf serum (FCS) to the solution, and a single-cell suspension was then obtained by mechanical dissociation, which consisted in cells trituration in a DMEM (D7777, Sigma-Aldrich) medium (supplemented with 44 mm NaHCO3, and 10 ml/L antibiotic/antimycotic solution) containing 10% FCS. The cells were seeded at an average density of 6×10^4 cells/cm^2 in poly-D-lysine-coated 96, 12 or 6-well culture plates, depending on their use, and incubated at 37° C. in a humidified atmosphere containing 5% CO2/95% air. Culture medium was renewed twice per week. Cells were stimulated and harvested between DIV14 and DIV17, when confluence and cell growth were optimal.
Secretion of lactate in a high-throughput screening (HTS) fashion was measured indirectly through the acidification of extracellular medium. To this end, primary astrocytes grown in 96-well plates for 17 days were stimulated with the compounds as listed herein.
After washing the cells twice with stimulation medium (DMEM (D5030, Sigma), 3 mM NaHCO3 and 5 mM Glucose) at 37° C., cells were stimulated with the compounds at a final concentration of 10 uM (1% DMSO final) in 50 ul per well of stimulation medium supplemented with 10 uM of the extracellular pH sensor SNARF-5F %-(AND-6)-CAR (Life Technologies Corporation). Each compound was tested in two different plates for duplicates.
After 90 min stimulation, fluorescence was read at exc. (excitation) 480 nm/emm. (emission) 580 nm and at exc 480 nm/emm. 630 nm. The ratio of fluorescence between 630 nm and 580 emission values, which represents extracellular pH, was calculated.
In each plate, 8 wells were used for negative controls (DMSO) and 8 wells were used for positive controls (CCCP 2 uM in DMSO). Z prime values were calculated for each of the plates tested and values<0 were discarded.
The average and SD of compounds' values tested in duplicates were calculated, and compound was noted as HIT when the difference between compound's average and negative control's average was greater than three times the sum of compound's SD and negative controls' SD. Only scores greater than 40% were considered as lead Hits for the CDC54K library; for the remaining libraries, all hits were considered. Scores are calculated as the % of activity compared to the positive control in each plate (which is 100%).
Primary screening hits were cherry picked on new plates and confirmed for SNARF5 effect, after having discarded those compounds that are fluorescent (exc. 480 nm/emm. 580 nm or 630 nm) before stimulation. Extracellular medium was next analyzed for extracellular lactate quantification for secondary screening.
Identification of lactate-enhancing drugs with high throughput screening (HTS) experiments on astrocytes primary cultures using extracellular pH dye (SNARF5F 5-(and-6)-carboxylic acid) for 90 min. The procedure is described in Material and Methods (2. Cell culture, 2.1. HTS for lactate secretion and 2.2. Extracellular lactate quantification).
The procedure was performed as follows: • Primary screening: acidification of the extracellular medium • Primary screening confirmation: acidification of the extracellular medium, removal of compounds with fluorescent activity at exc. 480 nm/emm. 580 nm or 630 n. • Secondary screening: dosage of extracellular lactate

| SMILES | Score_LACTATE (primary astrocytes [1]) | Score_SNARF (primary astrocytes [2]) | Score Lact. (primary astrocytes [1]; Appendix II, CDC54K library) |
| --- | --- | --- | --- |
| COc1ccc(C)cc1NS(=O)(=O)c1cc(-c2ccnn2C)cs1 [L924-0830] | 0.9168 | 0.7153 | – |
| Cc1cccc(NS(=O)(=O)c2cc(-c3ccnn3C)cs2)c1 [L924-0884] | 0.7362 | 0.7507 | – |
| CCn1nccc1-c1csc(S(=O)(=O)Nc2cc(C)ccc2C)c1 [L924-0988] | 0.6139 | 0.6652 | – |
| CCn1nccc1-c1csc(S(=O)(=O)Nc2ccccc2OC)c1 [L924-1088] | 0.9106 | 0.8835 | – |
| O=C(c1noc2ccc(S(=O)(=O)Nc3cccc(F)c3)cc12)N1CCCC1 [L995-0058] | 0.424 | 0.4197 | – |
| Cc1ccccc1NS(=O)(=O)c1ccc2onc(C(=O)N3CCCCC3)c2c1 [L995-0405] | 0 | 0.3724 | – |
| O=C(c1ccco1)N1CCCn2nc(-c3ccc(C(F)(F)F)cc3)cc2C1 [T200-0370] | 0.2896 | 0.3804 | – |
| COc1cccc(-c2cc3n(n2)CCCN(Cc2ccncc2)C3)c1 [T202-0973] | 0 | 0.2834 | – |
| O=C(C[n+]1cc(-c2ccc(Br)cc2)n2c1CCCCC2)c1ccccc1.[Br-] [T0500-4648] | 1.116 | 1.034 | – |
| Fc1ccc(Nc2nc(N3CCOCC3)c3ccccc3n2)cc1 [T0508-5193] | 0 | 0.3052 | – |
| O=S(=O)(Nc1ccc(O)c(Cl)c1)c1ccc2ccccc2c1 [T0517-8939] | 0 | 0.6382 | – |
| CC(C)OCCCNc1ncnc2c1CCC2 [T636-0027] | 0 | 0 | – |
| Cc1ccc(CNc2ncnc3c2CCC3)o1 [T636-0054] | 0 | 0 | – |
| COc1cccc(CNc2ncnc3c2CCC3)c1 [T636-0134] | 0.3283 | 0 | – |
| Cc1ccsc1C(=O)NC1CCN(c2ncnc3c2CCC3)C1 (centres unmarked) [T636-1114] | 0.5477 | 0.6238 | – |
| O=C(NCc1ccccc1)NC1CCN(c2ncnc3c2CCC3)C1 (centres unmarked) [T636-1210] | 0.3226 | 0.4305 | – |
| O=C(NCc1cccc(F)c1)NC1CCN(c2ncnc3c2CCC3)C1 (centres unmarked) [T636-1243] | 0 | 0.4179 | – |
| O=S(=O)(NC1CCN(c2ncnc3c2CCC3)C1)c1ccccc1 (centres unmarked) [T636-1250] | 0.8982 | 0.8587 | – |
| Cc1ccc(CN2CCN(c3ncnc4c3CCC4)CC2)o1 [T636-1937] | 0.8045 | 0.473 | – |
| COc1ccc(CN2CCN(c3ncnc4c3CCC4)CC2)cc1OC [T636-2007] | 0.9841 | 0.8596 | – |
| O=C(Cc1cccc(F)c1)N1CCC(Nc2ncnc3c2CCC3)C1 (centres unmarked) [T636-2360] | 0.413 | 0 | – |

| SMILES | Score_LACTATE (primary astrocytes [1]) | Score_SNARF (primary astrocytes [2]) | Score Lact. (primary astrocytes [1]; Appendix II, CDC54K library) |
| --- | --- | --- | --- |
| O=C(c1ccc(Cl)s1)N1CCC(Nc2ncnc3c2CCC3)C1 (centres unmarked) [T636-2391] | 0.8854 | 0.8743 | – |
| Cn1nccc1C(=O)N1CCC(Nc2ncnc3c2CCC3)C1 (centres unmarked) [T636-2425] | 0.3027 | 0.2725 | – |
| O=S(=O)(Nc1ccc(F)c(Cl)c1)c1ccc2ccccc2c1 [T5231424] | 0.5258 | 0.3707 | – |
| COc1ccccc1S(=O)(=O)Nc1ccc2nc(C)sc2c1 [T5246417] | 0 | 0.2455 | – |
| FC(F)(F)c1cccc(CNc2ncnc3sccc23)c1 [T5346988] | 0.9327 | 0.9569 | – |
| COc1ccc(C2SCCN2S(=O)(=O)c2cccc(C)c2)cc1OC (centres unmarked) [T5463658] | 0.3773 | 0.4683 | – |
| Cc1nc2ccc(NS(=O)(=O)c3ccccc3F)cc2s1 [T5511047] | 0.3825 | 0.5545 | – |
| Cc1cc(S(=O)(=O)NCc2ccncc2)c(Cl)cc1Cl [T5581430] | 0 | 0.505 | – |
| Cc1nc(-c2cccc(NS(=O)(=O)c3ccc(N4CCCC4=O)cc3)c2)cs1 [T5599698] | 0.7496 | 0.8856 | – |
| O=C(NC1CC1)c1cccc(NS(=O)(=O)c2ccc(N3CCCC3=O)cc2)c1 [T5618591] | 0.3601 | 0.5353 | – |
| CC(=O)c1cccc(NC(=O)C(C)Sc2ncnc3ccsc23)c1 (centres unmarked) [T5627721] | 0.9487 | 0.7385 | – |
| CC1c2ccsc2CCN1c1ncnc2sccc12 (centres unmarked) [T5630309] | 0.7 | 0.4816 | – |
| O=S(=O)(Nc1ccc2[nH]ncc2c1)c1ccc(C(F)(F)F)cc1 [T5653029] | 1.354 | 0.5642 | – |
| CC(Nc1ncnc2sccc12)c1ccccn1 (centres unmarked) [T5672380] | 0.5883 | 0.7508 | 0.58 |
| c1csc(C(Nc2ncnc3sccc23)C2CC2)c1 (centres unmarked) [T5713637] | 1.287 | 1.184 | – |
| c1ccc(C(Nc2ncnc3sccc23)C2CC2)cc1 (centres unmarked) [T6016487] | 1.857 | 1.081 | – |
| CC(=O)N1CCCc2cc(S(=O)(=O)NCc3cccc(C(F)(F)F)c3)ccc21 [T6099519] | 0 | 0.3944 | – |
| Cc1ccc(F)cc1NC(=O)Cc1nn(C)c(=O)c2ccccc12 [T6302989] | 0 | 0.4072 | – |
| c1ccc2c(c1)CN(c1ncnc3sccc13)CCN2 [T6768300] | 0 | 0.3742 | – |
| CN(C)Cc1cccc(CNc2ncnc3sccc23)c1 [T6783542] | 1.033 | 0.9183 | – |
